Consider 11 molecules from patent US9173898B2, “Methods of treating giardiasis” (THE UNITED STATES OF AMERICA, as represented by the …, priority 2010, dated 2015).

In brackets after ≈: the same amount, converted by molar mass. Like-named read-outs stand apart in the source and are kept apart here.

Assay [1] deals with CHO cells. In words: CHO cell cytotoxicity assay in 1536-well format (ATP content counter-screen). The class given is cell-based, Chinese hamster. The conditions noted are these: concentration at which 50% of DMSO control ATP levels are detected, 48 hours. On the procedure: For the viability assay in 1536-well format, 2 μL media was dispensed per well into 1536-well white solid-bottom plates using Multidrop Combi dispenser. Subsequently, 23 nL/well compound solutions or DMSO controls were dispensed to the assay plates via a pintool workstation. The Chinese hamster ovary (CHO) cells were grown in T225 flasks to 70% confluence under a standard cell culture condition (ATCC), detached with 0.25% Trypsin/EDTA, and seeded at 250 cells/well in 4 μL media (Dulbecco's Modified Eagle Medium, 10% fetal bovine serum, 1× penicillin/streptomycin). The plates were incubated at 37° C. with 5% CO2 and 95% humidity for 48 hours. Subsequently, ATP content was measured following the addition of 4 μL/well of ATPLite reagent and a 20 min incubation on a ViewLux plate reader.
Data from the CHO cell counter-screen underwent the same initial analysis, with the exception that raw luminescence counts were normalized relative to DMSO only wells (0% activity) and 38.3 μM camptothecin treated wells (100% activity).
CHO cells, commonly used in high throughput compound screening, were selected to determine the cytotoxicity of the compounds towards a mammalian cell line.
On the technique in general: The purpose of a counterscreen is to sort out artefacts and off-target activity.

Assay [2] deals with G. lamblia GS isolate. In words: ATP content assay against G. lamblia GS isolate. The class given is cell-based, Giardia lamblia. On the procedure:
(§1) For the viability assay in 1536-well format, 2 μL media was dispensed per well into 1536-well white solid-bottom plates using a Multidrop Combi dispenser (Thermo Scientific). Subsequently, 23 nL/well compound solutions or DMSO controls were dispensed to the assay plates containing media via a pintool workstation (Kalypsys, San Diego). Trophozoites were chilled on ice to detach from glass tubes, and unless otherwise noted, were diluted to 250,000 trophozoites/mL with ice cold media. The trophozoite suspension was kept on ice and dispensed as 4 μL/well with the Multidrop Combi dispenser. Attachment of trophozoites to dispensing apparatus was avoided with continuous dispensing and icing of the trophozoite suspension. The plates were covered with plastic low-evaporation lids, individually sealed in Type A Bio-Bags and incubated at 37° C. for 48 hours. Following incubation, 4 μL/well of ATPLite reagent was dispensed with the Multidrop Combi dispenser. The assay plates were briefly centrifuged at 1000 RPM and luminescence signal was detected on a ViewLux plate reader (PerkinElmer) after 20 min incubation at room temperature. Signal-to-basal (S/B) ratio, Z′ factor and coefficient of variation (CV) were calculated from 32 wells with 0.38% DMSO (total signal) and 32 well with 38.3 μM Mnz (basal signal).
As a further confirmatory step, some compounds that were commercially available were purchased as powder samples and tested against the G. lamblia GS isolate using both the ATP content and enumeration assays (Table 3).

The test system of assay [3] is Giardia lamblia GS isolate. In words: Trophozoite enumeration assay. The conditions noted are these: G. lamblia GS isolate, 48 hrs, cell counting in hemocytometer. The format is cell-based. On the procedure:
Giardia lamblia GS isolate was plated into sterile 96-well black clear-bottom assay plates at 10,000 cells/well density and 120 μL/well volume in culture media. Compounds tested were prepared as 50 mM DMSO solutions in a 12 point 1:3 titration series in DMSO, with exceptions being carbadox, Bortezomib and BTO-1, which were used at 10 mM top concentration due to solubility limitations. Compound titration series were added to duplicate assay wells as 0.5 μL/well and the assay plates were incubated anaerobically in Type A Bio-Bag (BD Diagnostics) for 48 hrs at 37° C. Cell density was visually scored in each well and the 6 wells surrounding the visually determined IC50 concentrations were quantitated by cell counting. For enumeration, trophozoites were detached on ice for 30 min and resuspended via pipetting. 75 μL of culture was removed from each well, mixed with 65 μL of 0.4% Trypan Blue and 10 μL of 30% bleach (final concentration of 2% bleach) to immobilize trophozoites. Trophozoites were then counted in a hemocytometer.

In assay [4] the test system is Giardia WB. In words: Giardia viability (ATP content) assay in 1536-well format. The following applies: for IC50: concentration at which 50% of DMSO control ATP levels are detected, 48 hours, 1536-well; for Giardia WB Efficacy / Emax: percent reduction in ATP levels compared with 38.3 mM Mnz at maximal compound concentration; for Emax: 48 h, read-out: Giardia WB Efficacy. The format is cell-based, Giardia lamblia. As to the method:
as §1
Assay miniaturization in 1,536-well plate format was undertaken to increase throughput and facilitate screening of large compound libraries. The volume of trophozoites suspension was reduced to 6 μL/well and the ATP detection reagent was reduced to 4 μL/well in the 1536-well assay plates. […] The 100 trophozoites/well density was selected for further experiments to reduce the preparation work of Giardia cultures. Following these conditions, a DMSO test plate was used to assess the statistical parameters of the assay in the 1,536-well plate format.
Using the above established conditions in 1536-well format, each compound of the invention was tested at 5 concentration points, ranging from 61 nM-38.3 μM in a 1:5 dilution ratio (Inglese, J., D. S. Auld, A. Jadhav, R. L. Johnson, A. Simeonov, A. Yasgar, W. Zheng, and C. P. Austin. 2006. Quantitative high-throughput screening: a titration-based approach that efficiently identifies biological activities in large chemical libraries. Proc Natl Acad Sci USA 103:11473-8).

The subject of assay [5] is CHO cells. Briefly: CHO cell cytotoxicity assay in 1536-well format (ATP content counter-screen). The class given is cell-based, Chinese hamster. The following applies: for CHO Efficacy: percent reduction in ATP levels compared with 38.3 mM camptothecin at maximal compound concentration; for Emax: Cricetulus griseus, CHO, 48 h, percent reduction in ATP levels compared with 38.3 µM camptothecin at maximal compound concentration, read-out: CHO Efficacy.

The subject of assay [6] is Giardia lamblia GS isolate. Briefly: Minimum Lethal Concentration (MLC) determination. The format is cell-based. The conditions noted are these: 3 days with compound, then 3 days regrowth without compound, tube without any live organisms. As to the method:
Giardia lamblia GS isolate was used throughout the Minimal Lethal Concentration (MLC) experiments. Organisms were grown and maintained in TYI-S-33 medium supplemented with bile and antibiotics (Keister, 1983). Cidal activity was determined in 96-well culture plates (Corning Incorporated) followed by Giardia trophozoites regrowth in 8 ml tubes (Fisher Scientific). Dry compounds were dissolved in DMSO (Sigma) at stock concentration of 10 mM and then added to the growth media to ensure final DMSO concentration of no more than 0.5%. 100 μl of the compound solutions were placed in the wells by serial dilutions. 10 μl of Giardia trophozoites containing 10000 organisms were then added. Serial dilutions of metronidazole served as the positive control and the DMSO-containing medium served as the negative control. Plates were incubated under anaerobic conditions in sealed bags (Becton Dickinson and Company) at 37° C. for 3 days and surveyed visually under microscope to check survival, mobility and attachment of trophozoites. The plate was chilled on ice for 30 min and the entire contents of 4 wells in the growth/death transition were transferred into the 8 ml tubes containing growth media only (without the compound). After 3 days of incubation at 37° C., tubes were checked under microscope for any surviving trophozoites. MLC was attributed to the tube without any live organisms. See, e.g., Keister, D. B. 1983. Axenic culture of Giardia lamblia in TYI-S-33 medium supplemented with bile. Trans. Soc. Trop. Med. Hyg. 77:487-488.

Setting [7] is: G. lamblia GS isolate, purchased powder samples.
Setting [8] is: G. lamblia GS isolate, purchased powder samples, read-out: ATP Content IC50.
[9] abbreviates: Table 2, screen, read-out: Giardia GS IC50.
The mark [10] stands for this setting: Giardia duodenalis, G. lamblia GS isolate, purchased powder samples, read-out: ATP Content IC50.
Setting [11] is: Giardia duodenalis, Table 2, screen, read-out: Giardia GS IC50.

For the molecule `N#Cc1cc([N+](=O)[O-])c2sc(C(N)=O)[n+]([O-])c2c1` [BTO-1], the 50% inhibitory concentration (IC50) in assay [1] came to 68800 nM; in assay [2] (setting [8]) it was 2000 nM; in assay [3], 9300 nM; in assay [4], 1730 nM. Moreover, in assay [2] (setting [7]), the “ATP Content Efficacy” value was 99.1%. Also, the “Giardia WB Efficacy” value in assay [4] came to 72.3%. For the same molecule, the “CHO Efficacy” value in assay [5] is recorded as 32.2%.
As for `O=[N+]([O-])c1ccc(/C=N/O)o1` [Nifuroxime], the figures for the IC50 in assay [1], in assay [2] (setting [9]) and in assay [4] were 41000 nM, 1000 nM and 460 nM, respectively. Further, the MBC in assay [6] is given as 1.54 µM (≈ 0.24 µg/mL). Also, in assay [4], the “Giardia WB Efficacy” value is on record as 97.1%. In assay [5], the “CHO Efficacy” value is recorded as −50.3%.
As for `COC(=O)N/N=C/c1c[n+]([O-])c2ccccc2[n+]1[O-]` [Carbadox], the IC50 in assay [1] (Cricetulus griseus, CHO) is greater than 100000 nM; in assay [2] (setting [10]), 240 nM; in assay [2] (setting [11]) it was 2830 nM; in assay [3] (Giardia duodenalis) it was 290 nM; in assay [4] (Giardia), 5460 nM. Besides, in assay [2] (setting [7]), the “ATP Content Efficacy” value was 99.4%. In addition, the MBC in assay [6] (Giardia duodenalis, 72 h) came out at 4.6 µM (≈ 1.21 µg/mL). Also, the figures for the Emax in assay [4] (Giardia) and in assay [5] were 86.6% and 6.3%, respectively.
Regarding `O=[N+]([O-])c1ccc([As](=O)(O)O)cc1` [Nitarsone], the half-inhibitory concentration (IC50) in assay [1] is greater than 100000 nM; in assay [2] (setting [8]), 900 nM; in assay [2] (setting [9]), 1260 nM; in assay [3], 1200 nM; in assay [4], 430 nM. The “ATP Content Efficacy” value in assay [2] (setting [7]) is 99.6%. Moreover, in assay [6], the MBC worked out at 2.6 µM. Also, the “Giardia WB Efficacy” value in assay [4] was 97.0%. Also, the “CHO Efficacy” value in assay [5] is −13.5%.
For `CO[C@@H]1[C@H](OC(=O)/C=C/C=C/C=C/C=C/C(=O)O)CC[C@]2(CO2)[C@H]1[C@@]1(C)O[C@@H]1CC=C(C)C` [Fumagillin], the concentration for half-maximal inhibition (IC50) is greater than 100000 nM in assay [1] (Cricetulus griseus, CHO); 2 nM in assay [2] (setting [10]); 2 nM in assay [2] (setting [11]); 3 nM in assay [3] (Giardia duodenalis); 10 nM in assay [4] (Giardia). For the same molecule, the “ATP Content Efficacy” value in assay [2] (setting [7]) was 98.9%. Moreover, the MBC in assay [6] (Giardia duodenalis, 72 h) came to 0.257 µM (≈ 0.118 µg/mL). Besides, the Emax in assay [4] (Giardia) is 83.4%; in assay [5], -1.9%.
Turning to `CC(C)C[C@H](NC(=O)[C@H](Cc1ccccc1)NC(=O)c1cnccn1)B(O)O` [Bortezomib], the “ATP Content Efficacy” value in assay [2] (setting [7]) was determined as 98.5%. For the same molecule, the 50% inhibitory concentration (IC50) in assay [2] (setting [10]) was found to be 60 nM; in assay [3] (Giardia duodenalis) it was 130 nM. Also, the MBC in assay [6] (Giardia duodenalis, 72 h) worked out at 0.51 µM (≈ 0.196 µg/mL).
With `Oc1cc(O)cc(/C=C/c2ccc(O)c(O)c2)c1` [Piceatannol], the IC50 in assay [1] (Cricetulus griseus, CHO) is greater than 100000 nM; in assay [2] (setting [11]), 3560 nM; in assay [4] (Giardia) it was 3260 nM. Further, in assay [6] (Giardia duodenalis, 72 h), the MBC is 13.9 µM (≈ 3.4 µg/mL). The figures for the Emax in assay [4] (Giardia) and in assay [5] were 81.3% and -16.6%, respectively.
In the case of `CC(=O)Nc1ncc([N+](=O)[O-])s1` [Nithiamide], the IC50 in assay [1] (Cricetulus griseus, CHO) was greater than 100000 nM; in assay [2] (setting [11]), 317 nM; in assay [4] (Giardia), 580 nM. In addition, the minimal bactericidal concentration (MBC) in assay [6] (Giardia duodenalis, 72 h) worked out at 4.63 µM (≈ 0.867 µg/mL). For the same molecule, the Emax came out at 94.6% in assay [4] (Giardia) and 25.9% in assay [5].
For the molecule `CCCC(=O)OCC(OC(=O)CCC)C(OC(=O)CCC)C(Cn1c2nc(=O)[nH]c(=O)c-2nc2cc(C)c(C)cc21)OC(=O)CCC` (stereo not drawn) [Riboflavin Butyrate], the concentration for half-maximal inhibition (IC50) in assay [1] (Cricetulus griseus, CHO) was greater than 100000 nM; in assay [2] (setting [11]) it was 1130 nM; in assay [4] (Giardia), 1090 nM. In assay [6] (Giardia duodenalis, 72 h), the MBC was found to be 41.7 µM (≈ 27.4 µg/mL). The Emax was 95.7% in assay [4] (Giardia) and 20.3% in assay [5].
Regarding “hydroxocobalamin acetate [Hydroxocobalam in Acetate]”, the half-maximal inhibitory concentration (IC50) was greater than 100000 nM in assay [1], 78300 nM in assay [2] (setting [8]), 54200 nM in assay [3] and 13700 nM in assay [4]. Besides, the “ATP Content Efficacy” value in assay [2] (setting [7]) is 98.4%. Further, the minimal bactericidal concentration (MBC) in assay [6] is greater than 208 µM. Further, the “Giardia WB Efficacy” value in assay [4] was 92.2%. In assay [5], the “CHO Efficacy” value stood at 16.1%.
As to `O=C(Nc1ccccc1)c1cc([N+](=O)[O-])ccc1Cl` [GW9662], the IC50 in assay [1] (Cricetulus griseus, CHO) is greater than 100000 nM; in assay [2] (setting [10]), 12700 nM; in assay [3] (Giardia duodenalis) it was 32900 nM; in assay [4] (Giardia), 6870 nM. The “ATP Content Efficacy” value in assay [2] (setting [7]) was found to be 99.2%. Besides, the MBC in assay [6] (Giardia duodenalis, 72 h) came out at 208 µM (≈ 57.5 µg/mL). The Emax turned out to be 86.4% in assay [4] (Giardia) and 8.5% in assay [5].

By IC50 is commonly meant the midpoint of a concentration-inhibition curve. One may read the MBC as the smallest concentration meeting the test's criterion for killing.
